# Assay results as given in US11160871B2, “SSTR-targeted conjugates and particles and formulations thereof” (TARVEDA THERAPEUTICS, INC., priority 2015, dated 2021).
# Where two headings read alike, the source gives them in different places. Starred links: 1 amine or outer side, 2 acyl side, 3 side chain; linkers in the order of their positions; H or OH if unused. Positions of bridges follow the written chain, without caps; N, C: chain ends. Non-standard residues stand in square brackets, D forms with d. Residues, ends and D or L forms follow the SMILES beside them. *: point of attachment. NH(CH2)2SS(DM1) = COc1cc2cc(c1Cl)N(C)C(=O)C[C@H](OC(=O)[C@H](C)N(C)C(=O)CCSSCCN*)[C@]1(C)O[C@H]1[C@H](C)[C@@H]1C[C@@](O)(NC(=O)O1)[C@H](OC)/C=C/C=C(\C)C2; X1 = COc1cc2cc(c1Cl)N(C)C(=O)C[C@H](OC(=O)[C@H](C)N(C)C(=O)CCS*)[C@]1(C)O[C@H]1[C@H](C)[C@@H]1C[C@@](O)(NC(=O)O1)[C@H](OC)/C=C/C=C(\C)C2; N(3-sulfanylpropyl)dPhe = O=C([C@@H](Cc1ccccc1)N(CCCS[*:3])[*:1])[*:2]; Thr(ol) = C[C@@H](O)[C@H](N)CO
# Columns and labels:
# [1] = tested on: NCI-H69 SCLC tumors; experiment: H69 tumor DM-1 levels by LC/MS-MS; assay type: in vivo, mice; conditions: 1 mg/kg; 24 hour time point
# Protocol: To examine the ability of conjugates of the present invention to accumulate in tumors, a murine cancer model was used. All mice were treated in accordance with the OLAW Public Health Service Policy on Human Care and Use of Laboratory Animals and the ILAR Guide for the Care and Use of Laboratory Animals. All in vivo studies were conducted following the protocols approved by the Blend Therapeutics Institutional Animal Care and Use Committee. Animals were inoculated with 2.5×10^6 NCI-H69 SCLC (small cell lung cancer) cells in 1:1 RPMI 1640 (Invitrogen, Carlsbad, Calif.)/Matrigel® (BD Biosciences, San Jose, Calif.) via subcutaneous injection to the right flank. Tumors were allowed to reach an approximate volume of ˜500 mm3. Animals were then randomized into treatment groups of 3 animals per time point and were dosed at 1 mg/kg (10% propylene glycol in water for injection for free conjugates, or 10% sucrose for nanoparticles), or 0.4 mg/kg for DM-1 (10% propylene glycol in water for injection). The 24 hour time point was used as a benchmark across conjugates.
# Tumor DM-1 levels were determined by liquid chromatography mass spectrometry (LC/MS-MS). Four volumes of 5 mM 6-maleimidohexanoic acid to 1 part tumor v/w was added and homogenized for about 10-15 seconds with a handheld homogenizer. 10 μL of 500 mM Tris(2-carboxyethyl)phosphine was added to 100 uL of tumor homogenate, mixed well and incubated at room temperature for about 5-15 min. 200-300 uL of acetonitrile was used to precipitate proteins in tumor homogenate, samples were centrifuged for 5 min, and supernatant was injected onto LC/MS-MS system for DM-1 analysis.
# [2] = tested on: NCI-H524 human small cell lung cancer cells; experiment: cells; assay type: cell-based
# Protocol: Conjugates of the present invention were assessed in an in vitro assay evaluating inhibition of cell proliferation. NCI-H524 (ATCC) human small cell lung cancer cells were plated in 96 well, V-bottomed plates (Costar) at a concentration of 5,000 cells/well. 24 hours later, cells were treated with either conjugate for 2 hours and further incubated 70 hours, or for octreotide competition experiments, treated with 100 μM octreotide for 30 min, and then treated with conjugate for 2 hours, and further incubated for 70 hours. Conjugate starting dose was 20 μM and three fold serial dilutions were done for a total of ten points. After 2 hours of treatment, cells were spun down, the drug containing media was removed, and fresh complete medium was added and used to resuspend the cells, which were spun again. After removal of the wash media, the cells were resuspended in complete medium, and then transferred into white walled, flat bottomed 96 well plates. […] Proliferation was measured using CellTiter Glo reagent using the standard protocol (Promega) and a Glomax multi+ detection system (Promega). Percent proliferation inhibition was calculated using the following formula: % inhibition=(control−treatment)/control*100. Control is defined as vehicle alone. IC50 curves were generated using the nonlinear regression analysis (four parameter) with GraphPad Prism 6.
# [3] = 2 hours treatment, 70 hours further incubation, read-out: H524 IC50
# [4] = read-out: H524 IC50+ 100 uM octreotide, 100 μM octreotide for 30 min before conjugate
Compound,H69 tumor DM-1 levels [1],"IC50 [2, 3]","IC50 [2, 4]"
COc1cc2cc(c1Cl)N(C)C(=O)C[C@H](OC(=O)[C@H](C)N(C)C(=O)CCSSCCCN[C@H](Cc1ccccc1)C(=O)N[C@H]1CSSC[C@@H](C(=O)N[C@@H](Cc3c[nH]c4ccccc34)C(N)=O)NC(=O)[C@H](C(C)C)NC(=O)[C@H](CCCCN)NC(=O)[C@@H](Cc3c[nH]c4ccccc34)NC(=O)[C@H](Cc3ccc(O)cc3)NC1=O)[C@]1(C)O[C@H]1[C@H](C)[C@@H]1C[C@@](O)(NC(=O)O1)[C@H](OC)/C=C/C=C(\C)C2 [Conjugate 78] (H-[N(3-sulfanylpropyl)dPhe](X1)CY[dW]KVCW-NH2; disulfide 2-7),36.2 nM,,
COc1cc2cc(c1Cl)N(C)C(=O)C[C@H](OC(=O)[C@H](C)N(C)C(=O)CCSSCCNC(=O)[C@H](Cc1c[nH]c3ccccc13)NC(=O)[C@@H]1CSSC[C@H](NC(=O)[C@H](N)Cc3ccccc3)C(=O)N[C@@H](Cc3ccc(O)cc3)C(=O)N[C@H](Cc3c[nH]c4ccccc34)C(=O)N[C@@H](CCCCN)C(=O)N[C@@H]([C@@H](C)O)C(=O)N1)[C@]1(C)O[C@H]1[C@H](C)[C@@H]1C[C@@](O)(NC(=O)O1)[C@H](OC)/C=C/C=C(\C)C2 [Conjugate 49] (H-[dF]CY[dW]KTCW-{NH(CH2)2SS(DM1)}; disulfide 2-7),,0.069 µM,0.243 µM
COc1cc2cc(c1Cl)N(C)C(=O)C[C@H](OC(=O)[C@H](C)N(C)C(=O)CCSSCCNC(=O)CC[C@H]1C(=O)N[C@@H](Cc3ccc(O)cc3)C(=O)N[C@H](Cc3c[nH]c4ccccc34)C(=O)N[C@@H](CCCCN)C(=O)N[C@@H]([C@@H](C)O)C(=O)N[C@@H](Cc3ccccc3)C(=O)N1C)[C@]1(C)O[C@H]1[C@H](C)[C@@H]1C[C@@](O)(NC(=O)O1)[C@H](OC)/C=C/C=C(\C)C2 [Conjugate 14],70.1 nM,,
"CCCCCCCCCCC(CCN[C@H](Cc1ccccc1)C(=O)N[C@H]1CSSC[C@@H](C(=O)N[C@@H](Cc2c[nH]c3ccccc23)C(N)=O)NC(=O)[C@H](C(C)C)NC(=O)[C@H](CCCCN)NC(=O)[C@@H](Cc2c[nH]c3ccccc23)NC(=O)[C@H](Cc2ccc(O)cc2)NC1=O)SSCCC(=O)N(C)[C@@H](C)C(=O)O[C@H]1CC(=O)N(C)c2cc(cc(OC)c2Cl)C/C(C)=C/C=C/[C@@H](OC)[C@@]2(O)C[C@H](OC(=O)N2)[C@@H](C)[C@@H]2O[C@@]12C (single isomer, unassigned) [Conjugate 102]",,0.335 µM,0.579 µM
"COc1cc2cc(c1Cl)N(C)C(=O)C[C@H](OC(=O)[C@H](C)N(C)C(=O)CCSC1CC(=O)N(CC3CCC(C(=O)N[C@H](Cc4ccccc4)C(=O)N[C@H]4CSSC[C@@H](C(=O)N[C@H](CO)[C@@H](C)O)NC(=O)[C@H]([C@@H](C)O)NC(=O)[C@H](CCCCN)NC(=O)[C@@H](Cc5c[nH]c6ccccc56)NC(=O)[C@H](Cc5ccccc5)NC4=O)CC3)C1=O)[C@]1(C)O[C@H]1[C@H](C)[C@@H]1C[C@@](O)(NC(=O)O1)[C@H](OC)/C=C/C=C(\C)C2 (single isomer, unassigned) [Conjugate 104]",,0.279 µM,0.705 µM
COc1cc2cc(c1Cl)N(C)C(=O)C[C@H](OC(=O)[C@H](C)N(C)C(=O)CCSSCCC(=O)NCCOCCOCCOCCOCCOCCOCCOCCOCCC(=O)N[C@H](Cc1ccccc1)C(=O)N[C@H]1CSSC[C@@H](C(=O)N[C@H](CO)[C@@H](C)O)NC(=O)[C@H]([C@@H](C)O)NC(=O)[C@H](CCCCN)NC(=O)[C@@H](Cc3c[nH]c4ccccc34)NC(=O)[C@H](Cc3ccccc3)NC1=O)[C@]1(C)O[C@H]1[C@H](C)[C@@H]1C[C@@](O)(NC(=O)O1)[C@H](OC)/C=C/C=C(\C)C2 [Conjugate 6],,0.234 µM,
"COc1cc2cc(c1Cl)N(C)C(=O)C[C@H](OC(=O)[C@H](C)N(C)C(=O)CCSC1CC(=O)N(CCCNC(=O)CC[C@H](NC(=O)[C@@H]3CSSC[C@H](NC(=O)[C@H](N)Cc4ccccc4)C(=O)N[C@@H](Cc4ccc(O)cc4)C(=O)N[C@H](Cc4c[nH]c5ccccc45)C(=O)N[C@@H](CCCCN)C(=O)N[C@@H]([C@@H](C)O)C(=O)N3)C(=O)NCCCN3C(=O)CC(SCCC(=O)N(C)[C@@H](C)C(=O)O[C@H]4CC(=O)N(C)c5cc(cc(OC)c5Cl)C/C(C)=C/C=C/[C@@H](OC)[C@@]5(O)C[C@H](OC(=O)N5)[C@@H](C)[C@@H]5O[C@@]45C)C3=O)C1=O)[C@]1(C)O[C@H]1[C@H](C)[C@@H]1C[C@@](O)(NC(=O)O1)[C@H](OC)/C=C/C=C(\C)C2 (single isomer, unassigned) [Conjugate 53]",,0.042 µM,0.175 µM
COc1cc2cc(c1Cl)N(C)C(=O)C[C@H](OC(=O)[C@H](C)N(C)C(=O)CCSSC[C@H](N)C(=O)N[C@@H](CCCCN)C(=O)N[C@@H](CCCCN)C(=O)N[C@@H](CCCCN)C(=O)N[C@@H](CCCCN)C(=O)N[C@H](Cc1ccccc1)C(=O)N[C@H]1CSSC[C@@H](C(=O)N[C@H](CO)[C@@H](C)O)NC(=O)[C@H]([C@@H](C)O)NC(=O)[C@H](CCCCN)NC(=O)[C@@H](Cc3c[nH]c4ccccc34)NC(=O)[C@H](Cc3ccccc3)NC1=O)[C@]1(C)O[C@H]1[C@H](C)[C@@H]1C[C@@](O)(NC(=O)O1)[C@H](OC)/C=C/C=C(\C)C2 [Conjugate 7] (H-C(X1)KKKK[dF]CF[dW]KTC[Thr(ol)]; disulfide 7-12),,0.955 µM,
"COc1cc2cc(c1Cl)N(C)C(=O)C[C@H](OC(=O)[C@H](C)N(C)C(=O)CCSC1CC(=O)N(CC(=O)N[C@H](Cc3ccccc3)C(=O)N[C@H]3CSSC[C@@H](C(=O)N[C@H](CO)[C@@H](C)O)NC(=O)[C@H]([C@@H](C)O)NC(=O)[C@H](CCCCN)NC(=O)[C@@H](Cc4c[nH]c5ccccc45)NC(=O)[C@H](Cc4ccccc4)NC3=O)C1=O)[C@]1(C)O[C@H]1[C@H](C)[C@@H]1C[C@@](O)(NC(=O)O1)[C@H](OC)/C=C/C=C(\C)C2 (single isomer, unassigned) [Conjugate 108]",,0.096 µM,1.28 µM
COc1cc2cc(c1Cl)N(C)C(=O)C[C@H](OC(=O)C(C)N(C)C(=O)CCSSCC(=O)NCCNC(=O)CC[C@H]1C(=O)N[C@@H](Cc3ccc(O)cc3)C(=O)N[C@H](Cc3c[nH]c4ccccc34)C(=O)N[C@@H](CCCCN)C(=O)N[C@@H]([C@@H](C)O)C(=O)N[C@@H](Cc3ccccc3)C(=O)N1C)[C@]1(C)O[C@H]1[C@H](C)[C@@H]1C[C@@](O)(NC(=O)O1)[C@H](OC)/C=C/C=C(\C)C2 (stereo partly drawn) [Conjugate 30],,0.47 µM,2.02 µM
COc1cc2cc(c1Cl)N(C)C(=O)C[C@H](OC(=O)[C@H](C)N(C)C(=O)CCSSCCC(=O)N[C@H](Cc1ccccc1)C(=O)N[C@H]1CSSC[C@@H](C(=O)N[C@H](CO)[C@@H](C)O)NC(=O)[C@H]([C@@H](C)O)NC(=O)[C@H](CCCCN)NC(=O)[C@@H](Cc3c[nH]c4ccccc34)NC(=O)[C@H](Cc3ccccc3)NC1=O)[C@]1(C)O[C@H]1[C@H](C)[C@@H]1C[C@@](O)(NC(=O)O1)[C@H](OC)/C=C/C=C(\C)C2 [Conjugate 4],,0.367 µM,0.853 µM
COc1cc2cc(c1Cl)N(C)C(=O)C[C@H](OC(=O)[C@H](C)N(C)C(=O)CCSSCCC(=O)NCCOCCOCCOCCNC(=O)[C@@H](NC(=O)[C@@H]1CSSC[C@H](NC(=O)[C@H](N)Cc3ccccc3)C(=O)N[C@@H](Cc3ccc(O)cc3)C(=O)N[C@H](Cc3c[nH]c4ccccc34)C(=O)N[C@@H](CCCCN)C(=O)N[C@@H]([C@@H](C)O)C(=O)N1)[C@@H](C)O)[C@]1(C)O[C@H]1[C@H](C)[C@@H]1C[C@@](O)(NC(=O)O1)[C@H](OC)/C=C/C=C(\C)C2 [Conjugate 47],,2.13 µM,1.27 µM
COc1cc2cc(c1Cl)N(C)C(=O)C[C@H](OC(=O)[C@H](C)N(C)C(=O)CCSSCCNC(=O)N[C@H](Cc1ccccc1)C(=O)N[C@H]1CSSC[C@@H](C(=O)N[C@H](CO)[C@@H](C)O)NC(=O)[C@H]([C@@H](C)O)NC(=O)[C@H](CCCCN)NC(=O)[C@@H](Cc3c[nH]c4ccccc34)NC(=O)[C@H](Cc3ccccc3)NC1=O)[C@]1(C)O[C@H]1[C@H](C)[C@@H]1C[C@@](O)(NC(=O)O1)[C@H](OC)/C=C/C=C(\C)C2 [Conjugate 84],,0.076 µM,0.312 µM
"COc1cc2cc(c1Cl)N(C)C(=O)C[C@H](OC(=O)[C@H](C)N(C)C(=O)CCSSC(C)CCN[C@H](Cc1ccccc1)C(=O)N[C@H]1CSSC[C@@H](C(=O)N[C@H](CO)[C@@H](C)O)NC(=O)[C@H]([C@@H](C)O)NC(=O)[C@H](CCCCN)NC(=O)[C@@H](Cc3c[nH]c4ccccc34)NC(=O)[C@H](Cc3ccccc3)NC1=O)[C@]1(C)O[C@H]1[C@H](C)[C@@H]1C[C@@](O)(NC(=O)O1)[C@H](OC)/C=C/C=C(\C)C2 (single isomer, unassigned) [Conjugate 82]",,0.148 µM,0.867 µM
